Assay results: US10143700B2, “Nanoparticle formulations for delivering multiple therapeutic agents” (Amrita Vishwa Vidyapeetham University, priority 2013, dated 2018)

Experiments:
HepG2 cells = assay: Annexin V/PI apoptosis assay (confocal imaging and flow cytometry); assay type: cell-based; conditions: for apoptosis (apoptotic cells by flow cytometry): 5 μM sorafenib and/or 0.5 μM Dox
Method: Apoptosis studies: In the next step, the mode of cell death using Annexin V/PI apoptosis assay was investigated. […] The apoptotic cells using flow cytometry were also quantified. […] Even after combining both the drugs (5 μM sorafenib (5S) with 0.5 μM Dox (0.5D)), a maximum of only ˜60% apoptosis was registered (FIG. 15D). In contrast, as separate nanoformulations, the nano-shell (containing 5 μM sorafenib, (5AST)) (FIG. 15F), and the nano-core (containing 0.5 μM Dox, (0.5PD)) (FIG. 15G) have shown slight improvement in apoptosis (˜39% by shell, and ˜61% by core). After combining the two in a core-shell targeted fashion, excellent apoptosis was registered in ˜91% cells (FIG. 15H).

TfR = assay: Transferrin receptor expression in HepG2 cells by flow cytometry; assay type: cell-based
Method: Transferrin receptor expression and cellular uptake: In the next step, the expression of TfR in HepG2 cells was studied using flow cytometry. […] After creating an iron deficient microenvironment by treating the cells with 100 μM DFO, the number of the TfR-expressing cells increased to ˜89% (FIG. 13C). […] Following that, intracellular uptake of the core-shell nanoparticles in cancer cells was investigated. […] After creating iron-deficient microenvironment, the uptake was further increased to ˜94% (FIG. 13G) due to the increase in the number of TfRexpressing cells. Upon addition of iron-loaded transferrin, the uptake was dropped to ˜69% due to the saturation of TfR expression in these cells (FIG. 13H).

Compound: COc1cccc2c1C(=O)c1c(O)c3c(c(O)c1C2=O)C[C@@](O)(C(=O)CO)C[C@@H]3O[C@H]1C[C@H](N)[C@H](O)[C@H](C)O1 [Dox, doxorubicin]
- apoptosis (apoptotic cells by flow cytometry) (HepG2 cells): ~53%

Compound: holotransferrin: iron-loaded transferrin
- number of TfR-expressing cells (TfR; HepG2 cells, upon addition of iron-loaded transferrin (holotransferrin)): ~42%

Compound: CC(=O)N(O)CCCCCNC(=O)CCC(=O)N(O)CCCCCNC(=O)CCC(=O)N(O)CCCCCN [DFO]
- number of TfR-expressing cells (TfR; HepG2 cells treated with 100 μM DFO (iron deficient microenvironment), ~76% before iron chelation): ~89%
- viability of TfR overexpressing cells (HepG2 cells; pretreatment with 100 μM DFO, FIG. 15E): did not affect the viability

Compound: CNC(=O)c1cc(Oc2ccc(NC(=O)Nc3ccc(Cl)c(C(F)(F)F)c3)cc2)ccn1 [sorafenib]
- apoptosis (apoptotic cells by flow cytometry) (HepG2 cells): ~38%
